Source: patent US20160220602A1, “USE OF CHINESE MEDICINE PREPARATION IN PREPARING DRUG FOR PREVENTING AND/OR TREATING CROHN'S DISEASE” (TASLY PHARMACEUTICAL GROUP CO., LTD., priority 2013, published 2016)

Legend:
Format in all cases: in vivo, SD rats
[1] = tested on: TNBS-induced SD rat Crohn's disease model; experiment: DAI score in TNBS-caused Crohn's disease rat model; settings: TNBS model rats, 100 mg/kg
Procedure: Grouping: experiment was carried out by using two ways of intracolonic and intragastric administrations. […] There were 10 rats each group. Method for establishing rat model: referring to Morris method, TNBS was used to induce the SD rat Crohn's disease model (abbreviated as “TNBS model”). 24 hours before modeling, the SD rats were fasted but water was given. […] The rats of blank control group were normally fed with free access to water and the same volume of normal saline was given in the same administration routes by referring to the dosage regime of aforementioned treatment groups. The rats of model group were administrated with the same volume of normal saline in the same administration routes. […] (1) General Indices: weight change and stool (e.g. fecal occult blood, bloody stool and diarrhea) was observed every day to calculate DAI (disease activity index) score. DAI score=(weight loss percentage+stool character fraction+hematochezia fraction)/3 [table]

[2] = tested on: IFN-γ; experiment: Serum IFN-γ by ELISA, TNBS model rats; settings: 100 mg/kg once per day, 21 days
Procedure: (§1) Grouping: experiment was carried out by using two ways of intracolonic and intragastric administrations. […] There were 10 rats each group. Method for establishing rat model: referring to Morris method, TNBS was used to induce the SD rat Crohn's disease model (abbreviated as “TNBS model”). 24 hours before modeling, the SD rats were fasted but water was given. […] The rats of blank control group were normally fed with free access to water and the same volume of normal saline was given in the same administration routes by referring to the dosage regime of aforementioned treatment groups. The rats of model group were administrated with the same volume of normal saline in the same administration routes. […] (2) Serum indices: after final administration, the testing rats were fasted but given water. 24 hours later, blood was gained from abdominal aorta. Serum IFN-γ, IL-1, IL-4, IL-10 and Gln in intestinal mucosa were determined by enzyme-linked immunosorbent assay (ELISA) in rats.

[3] = tested on: IL-4; experiment: Serum IL-4 by ELISA, TNBS model rats; settings: 100 mg/kg once per day, 21 days
Procedure: as §1

[4] = tested on: Gln in intestinal mucosa; experiment: Gln in intestinal mucosa by ELISA, TNBS model rats; settings: 100 mg/kg once per day, 21 days
Procedure: as §1

[5] = tested on: TNBS-induced SD rat Crohn's disease model; experiment: Colon gross damage and histopathological score, TNBS model rats; settings: 100 mg/kg
Procedure: Grouping: experiment was carried out by using two ways of intracolonic and intragastric administrations. […] There were 10 rats each group. Method for establishing rat model: referring to Morris method, TNBS was used to induce the SD rat Crohn's disease model (abbreviated as “TNBS model”). 24 hours before modeling, the SD rats were fasted but water was given. […] The rats of blank control group were normally fed with free access to water and the same volume of normal saline was given in the same administration routes by referring to the dosage regime of aforementioned treatment groups. The rats of model group were administrated with the same volume of normal saline in the same administration routes. […] (3) Pathological indices: the colon of rats was taken out. The gross colon tissue damage was scored, subsequently examined and scored histopathologically by conventional HE staining. […] [table]

[6] = tested on: OXZ-induced SD rat Crohn's disease model; experiment: DAI score in oxazolone-caused Crohn's disease rat model; set-up: key: DAI = (weight loss % + stool character + hematochezia scores)/3; settings: 100 mg/kg
Procedure: Grouping: the experiment was carried out by using two ways of intracolonic and intragastric administration. […] There were 10 rats each group. Method for establishing rat model: referring to the Heller method, OXZ was used to induce the SD rat Crohn's disease model (abbreviated as “OXZ model”). Neck and back skin of rats were shaved (2 cm×2 cm). Ethanol was used to prepare 5% (w/v) OXZ solution, and 0.3 ml resultant OXZ solution was dripped on the skin of rats. […] The sensitized rats were adaptively raised for 5 days, […] anesthetized by intraperitoneal injection of pentobarbital sodium. […] After completion, the rats were inverted by lifting tails for 60s to make the solution totally absorbed. […] If the rats manifested dark hair color, body weight loss, poor appetite, lassitude, watery stool or diarrhea, the model establishment was success. Administration method: after successful model establishment by OXZ, the drug was given to rats. The TCM preparation k saline solutions at corresponding dose were administered to the groups of preparation k of all doses and the […] saline solution, a positive drug, administrated to the positive control group. The rats of blank control group were normally fed, given with water and the same volume of normal saline was given in the same administration routes by referring to the dosage regime of aforesaid treatment groups. The rats of model group were administrated with the same volume of normal saline in the same administration routes. The dose of each group was as follows: […] group at 100 mg/kg rat weight, the TCM preparation k high-dose group at 2.023 g raw medicine/kg rat weight, the middle-dose group at 1.012 g raw medicine/kg rat weight and the low-dose group at 0.506 g raw medicine/kg rat weight. […] (1) General Indices: weight change and stool (e.g. stool occult blood, bloody stool and diarrhea) were observed every day to calculate DAI score. DAI score=(weight loss percentage+defecate character fraction+hematochezia fraction)/3 [table]

Compound: Nc1ccc(O)c(C(=O)O)c1 [mesalamine, Mesalamine]
- DAI score (Mean ± SD) ([1]; intracolonic, 0th day (1 day before model established)): 0.000 ± 0.000
- DAI score (Mean ± SD) ([1]; intracolonic, 2nd day): 1.867 ± 0.571
- DAI score (Mean ± SD) ([1]; intracolonic, 3rd day): 2.100 ± 0.754
- DAI score (Mean ± SD) ([1]; intracolonic, 4th day): 2.067 ± 0.7217
- DAI score (Mean ± SD) ([1]; intracolonic, 5th day): 1.733 ± 0.562
- DAI score (Mean ± SD) ([1]; intracolonic, 6th day): 1.367 ± 0.532
- DAI score (Mean ± SD) ([1]; intracolonic, 7th day): 1.267 ± 0.467
- DAI score (Mean ± SD) ([1]; intracolonic, 8th day): 1.167 ± 0.360
- DAI score (Mean ± SD) ([1]; intracolonic, 9th day): 1.067 ± 0.306
- DAI score (Mean ± SD) ([1]; intracolonic, 10th day): 1.000 ± 0.314
- DAI score (Mean ± SD) ([1]; intracolonic, 11th day): 0.933 ± 0.211
- DAI score (Mean ± SD) ([1]; intracolonic, 12th day): 0.833 ± 0.236
- DAI score (Mean ± SD) ([1]; intracolonic, 13th day): 0.833 ± 0.236
- DAI score (Mean ± SD) ([1]; intracolonic, 14th day): 0.767 ± 0.353
- DAI score (Mean ± SD) ([1]; intracolonic, 15th day): 0.733 ± 0.344
- DAI score (Mean ± SD) ([1]; intragastric, 0th day (1 day before model established)): 0.000 ± 0.000
- DAI score (Mean ± SD) ([1]; intragastric, 2nd day): 1.519 ± 0.412
- DAI score (Mean ± SD) ([1]; intragastric, 3rd day): 1.481 ± 0.380
- DAI score (Mean ± SD) ([1]; intragastric, 4th day): 1.333 ± 0.333
- DAI score (Mean ± SD) ([1]; intragastric, 5th day): 1.111 ± 0.333
- DAI score (Mean ± SD) ([1]; intragastric, 6th day): 1.037 ± 0.261
- DAI score (Mean ± SD) ([1]; intragastric, 7th day): 1.000 ± 0.236
- DAI score (Mean ± SD) ([1]; intragastric, 8th day): 0.963 ± 0.309
- DAI score (Mean ± SD) ([1]; intragastric, 9th day): 0.889 ± 0.289
- DAI score (Mean ± SD) ([1]; intragastric, 10th day): 0.741 ± 0.324
- DAI score (Mean ± SD) ([1]; intragastric, 15th day): 0.481 ± 0.242
- DAI score (Mean ± SD) ([1]; intragastric, 16th day): 0.481 ± 0.242
- DAI score (Mean ± SD) ([1]; intragastric, 18th day): 0.333 ± 0.236
- DAI score (Mean ± SD) ([1]; intragastric, 19th day): 0.259 ± 0.147
- DAI score (Mean ± SD) ([1]; intragastric, 20th day): 0.222 ± 0.167
- IFN-γ serum content (Mean ± SD) ([2]; intracolonic): 84.51 ± 19.65 pg/mL
- IFN-γ serum content (Mean ± SD) ([2]; intragastric): 93.88 ± 23.67 pg/mL
- IL-4 serum content (Mean ± SD) ([3]; intracolonic): 96.80 ± 27.51 pg/mL
- IL-4 serum content (Mean ± SD) ([3]; intragastric): 75.80 ± 17.47 pg/mL
- Gln in intestinal mucosa (Mean ± SD) ([4]; intracolonic): 146.36 ± 28.11 µmol/L
- Gln in intestinal mucosa (Mean ± SD) ([4]; intragastric): 158.74 ± 41.35 µmol/L
- Gross damage score (Mean ± SD) ([5]; intracolonic): 0.500 ± 0.707
- Histopathological score (Mean ± SD) ([5]; intracolonic): 1.00 ± 1.10
- Gross damage score (Mean ± SD) ([5]; intragastric): 0.556 ± 0.527
- Histopathological score (Mean ± SD) ([5]; intragastric): 0.83 ± 0.41
- DAI score (Mean ± SD) ([6]; Table 14: OXZ model rats, intracolonic, 1st day): 0.267 ± 0.263
- DAI score (Mean ± SD) ([6]; Table 14: OXZ model rats, intracolonic, 2nd day): 0.400 ± 0.378
- DAI score (Mean ± SD) ([6]; Table 14: OXZ model rats, intracolonic, 3rd day): 0.300 ± 0.331
- DAI score (Mean ± SD) ([6]; Table 14: OXZ model rats, intracolonic, 4th day): 0.333 ± 0.385
- DAI score (Mean ± SD) ([6]; Table 14: OXZ model rats, intracolonic, 5th day): 0.800 ± 0.422
- DAI score (Mean ± SD) ([6]; Table 14: OXZ model rats, intracolonic, 7th day): 1.700 ± 0.637
- DAI score (Mean ± SD) ([6]; Table 14: OXZ model rats, intracolonic, 8th day): 1.500 ± 0.593
- DAI score (Mean ± SD) ([6]; Table 14: OXZ model rats, intracolonic, 9th day): 0.733 ± 0.439
- DAI score (Mean ± SD) ([6]; Table 15, as titled: intracolonic, TNBS model rats, 1st day): 0.600 ± 0.141
- DAI score (Mean ± SD) ([6]; Table 15, as titled: intracolonic, TNBS model rats, 4th day): 0.267 ± 0.211
- DAI score (Mean ± SD) ([6]; Table 15, as titled: intracolonic, TNBS model rats, 5th day): 1.000 ± 0.222
- DAI score (Mean ± SD) ([6]; Table 15, as titled: intracolonic, TNBS model rats, 8th day): 1.967 ± 0.576
- DAI score (Mean ± SD) ([6]; Table 15, as titled: intracolonic, TNBS model rats, 9th day): 1.633 ± 0.429
- DAI score (Mean ± SD) ([6]; Table 15, as titled: intracolonic, TNBS model rats, 10th day): 1.267 ± 0.625
- DAI score (Mean ± SD) ([6]; Table 15, as titled: intracolonic, TNBS model rats, 11th day): 1.067 ± 0.798
